# Data from ChEMBL document CHEMBL1126406, “Novel oxathiazinones as gastrin ligands : Unexpected preducts from the schotten-baumann reaction of arylsulphonyl chlorides with derivatives of aspartic acid” (1992).
# How the values were obtained:
# Mus musculus [1] = species: Mus musculus; experiment: The compound was evaluated for the percentage of pentagastrin control in the isolated mouse stomach assay; assay type: functional
# Mus musculus [2] = species: Mus musculus; experiment: Evaluated for the Log A50 value in the isolated mouse stomach assay; assay type: functional
SMILES,Control (Mus musculus [1]) [%],Log A50 (Mus musculus [2])
NC(=O)C(Cc1ccccc1)NC(=O)[C@H](CC(=O)O)NS(=O)(=O)c1ccc2ccccc2c1 (stereo partly specified),96,-5.6
Cc1ccc(S2(=O)=N[C@H](C(=O)NC(Cc3ccccc3)C(N)=O)CC(=O)O2)cc1 (stereo partly specified),56,-5.3
NC(=O)C(Cc1ccccc1)NC(=O)[C@@H]1CC(=O)OS(=O)(c2ccc3ccccc3c2)=N1 (stereo partly specified),67,-8.1
